Measured values from patent US20250276957A1, “CRYSTALLINE FORMS OF AN IL-17 INHIBITOR” (Novartis AG, priority 2022, published 2025).

Legend:
Human IL-17A x IL-17RA = molecular target: T1, Human IL-17A x IL-17RA (Homo sapiens, UniProt Q16552); details: biotinylated human IL-17A 5 nM, AF647-labeled human IL-17RA 30 nM; read-out: IL17AA FRET/IL17Rawt IC50; cited from earlier work
T1 sequence (Q16552 24-155): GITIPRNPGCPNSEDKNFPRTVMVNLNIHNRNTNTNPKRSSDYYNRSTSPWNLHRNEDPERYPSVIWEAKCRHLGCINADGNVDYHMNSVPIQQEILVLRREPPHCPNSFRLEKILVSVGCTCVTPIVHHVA

[1] = Dynamic vapor sorption (DVS) and stability at ambient temperature and humidity; assay type: physicochemical; details: water loss occurs quickly during handling
Text: Due to the unstable nature of hydrate HA at ambient temperature and humidity, water loss occurs quickly during handling of the samples and the high water content observed by DVS analysis was not seen in DSC or TGA analysis. This water loss behavior is considered to explain the different DSC and TGA results for the two hydrate HA samples.

Row | stability at ambient temperature and humidity [1] | SMILES | IC50 (Human IL-17A x IL-17RA) [nM]
1 |  | Cc1cc[n+]([O-])c(C)c1-c1ccc(NC(=O)[C@@H](NC(=O)c2ccnn2C)[C@H]2CCCc3ccccc32)cc1 [2,4-dimethyl-3-(4-((S)-2-(1-methyl-1H-pyrazole-5-carboxamido)-2-((S)-1,2,3,4-tetrahydronaphthalen-1-yl)acetamido)phenyl)pyridine 1-oxide] | 8
2 | unstable | Cc1cc[n+]([O-])c(C)c1-c1ccc(NC(=O)[C@@H](NC(=O)c2ccnn2C)[C@H]2CCCc3ccccc32)cc1 [hydrate HA, 2,4-dimethyl-3-(4-((S)-2-(1-methyl-1H-pyrazole-5-carboxamido)-2-((S)-1,2,3,4-tetrahydronaphthalen-1-yl)acetamido)phenyl)pyridine 1-oxide] | 
